Test results from PMC10179589, “Membrane Permeability Is Required for the Vasodilatory Effect of Carbonic Anhydrase Inhibitors in Porcine Retinal Arteries” (International Journal of Molecular Sciences, 2023).
Where a name gives a salt, the structure may show the parent alone.

How the values were obtained:
hCA I = target: T1, hCA I (Homo sapiens, UniProt P00915); test: stopped-flow CA inhibition assay; type: biochemical
T1 construct: gene CA1; cytosolic isoform
Excerpt: stopped-flow CA inhibition assay on hCA I

hCA II = target: T2, hCA II (Homo sapiens, UniProt P00918); test: stopped-flow CA inhibition assay; type: biochemical
T2 construct: gene CA2; cytosolic isoform
Excerpt: stopped-flow CA inhibition assay on hCA II

T1 sequence (P00915 2-261): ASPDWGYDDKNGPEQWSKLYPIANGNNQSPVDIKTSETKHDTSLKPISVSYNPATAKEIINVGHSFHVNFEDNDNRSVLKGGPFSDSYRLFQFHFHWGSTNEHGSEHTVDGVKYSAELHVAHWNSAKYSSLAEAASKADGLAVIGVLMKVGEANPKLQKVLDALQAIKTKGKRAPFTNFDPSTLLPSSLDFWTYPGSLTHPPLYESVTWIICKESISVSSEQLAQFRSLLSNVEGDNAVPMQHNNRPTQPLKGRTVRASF

Compound | Ki (hCA I) | Ki (hCA II)
N=C(N)NC(=N)Nc1ccc(S(N)(=O)=O)cc1 [compound 2, 4-(3-Carbamimidoylguanidino)benzenesulfonamide hydrochloride salt] | 0.361 µM | 0.135 µM
N=C(N)NC(=N)Nc1cccc(S(N)(=O)=O)c1 [compound 4, 3-(3-Carbamimidoylguanidino)benzenesulfonamide hydrochloride salt] | 0.707 µM | 0.265 µM
